This experiment concerns the target T1, TRPV4 channel receptors (Bos taurus, UniProt A0A8F4X677).
T1 construct: obtained using this method in bovine articular chondrocytes; endogenous in cells; host or cells: bovine articular chondrocytes
In words: Ca2+ influx in bovine articular chondrocytes (Fura-2 fluorescence, FlexStation). Type of experiment: cell-based. The text has this: Ca^2+ influx mediated through TRPV4 channel receptors can be measured using articular chondrocytes from such species as, but not limited to, human, rat, canine, rabbit, monkey, and bovine, using standard techniques in the art such as, but not limited to, Fura-2 (Invitrogen/Molecular Probes, Eugene, Oreg.) fluorescence using a FlexStation (manufactured by Molecular Devices, Sunnyvale, Calif.). Table 1 lists biological data for several representative compounds obtained using this method in bovine articular chondrocytes.

T1 sequence (A0A8F4X677 1-871): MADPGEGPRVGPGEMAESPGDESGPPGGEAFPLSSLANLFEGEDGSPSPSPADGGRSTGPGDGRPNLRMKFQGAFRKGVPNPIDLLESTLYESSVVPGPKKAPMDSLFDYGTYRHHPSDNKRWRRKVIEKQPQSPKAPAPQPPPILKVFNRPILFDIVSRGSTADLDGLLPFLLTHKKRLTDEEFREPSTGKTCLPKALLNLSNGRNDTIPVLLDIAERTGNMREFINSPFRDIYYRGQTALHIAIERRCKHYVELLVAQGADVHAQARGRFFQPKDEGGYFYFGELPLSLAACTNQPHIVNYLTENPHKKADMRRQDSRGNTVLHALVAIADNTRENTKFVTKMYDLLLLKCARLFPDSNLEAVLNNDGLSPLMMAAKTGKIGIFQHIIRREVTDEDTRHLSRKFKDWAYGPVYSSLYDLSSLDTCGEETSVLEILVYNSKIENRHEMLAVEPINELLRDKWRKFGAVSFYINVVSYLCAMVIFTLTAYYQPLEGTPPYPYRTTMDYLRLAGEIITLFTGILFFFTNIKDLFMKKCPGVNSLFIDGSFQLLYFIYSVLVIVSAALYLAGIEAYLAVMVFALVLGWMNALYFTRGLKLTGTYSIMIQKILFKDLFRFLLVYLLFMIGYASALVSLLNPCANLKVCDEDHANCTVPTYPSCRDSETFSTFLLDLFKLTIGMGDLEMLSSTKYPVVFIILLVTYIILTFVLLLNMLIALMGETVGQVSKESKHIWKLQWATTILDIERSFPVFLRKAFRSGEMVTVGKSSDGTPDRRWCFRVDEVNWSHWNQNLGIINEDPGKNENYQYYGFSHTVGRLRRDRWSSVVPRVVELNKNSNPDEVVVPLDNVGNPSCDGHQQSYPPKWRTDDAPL

`CC(C)C[C@H](NC(=O)c1cc2ccccc2s1)C(=O)NCC1CCCCN1S(=O)(=O)c1ccccc1C#N` (stereo partly drawn) [Example 1, N-((1S)-1-{[({1-[(2-cyanophenyl)sulfonyl]-2-piperidinyl}methyl)amino]carbonyl}-3-methylbutyl)-1-benzothiophene-2-carboxamide] yielded an EC50 of 110 to 2000 nM. Compound `CC(C)C[C@H](NC(=O)c1cc2ccccc2s1)C(=O)NCCC1CCCCN1S(=O)(=O)c1ccc(Cl)cc1Cl` (stereo partly drawn) [Example 3, N-((1S)-1-{[(2-{1-[(2,4-Dichlorophenyl)sulfonyl]-2-piperidinyl}ethyl)amino]carbonyl}-3-methylbutyl)-1-benzothiophene-2-carboxamide] returned an EC50 of 10 to 100 nM.

Usually EC50 stands for the concentration at which the effect is half-maximal. Read a high EC50 as weaker potency.

The values are drawn from US20100227856A1, “NOVEL COMPOUNDS” (SMITHKLINE BEECHAM CORPORATION, priority 2006, published 2010).
